Laboratory results as given in patent publication US10889812B2, “Short non-coding protein regulatory RNAs (sprRNAs) and methods of use” (University of Maryland, Baltimore, priority 2014, dated 2021).
pIC50: −log10 of the molar value.

How the values were obtained:
piR-L-138 [1] = experiment: piR-L-138 expression by real-time RT-PCR after chemotherapeutic agent, ADC cell lines; format: cell-based, human; conditions: 24 h after treatment
Excerpt: (§1) To determine if piRNA-Ls play a role in chemo-sensitivity, we first selected 11 piRNA-Ls differentially expressed between NSCLC and HBE cells (Mei Y, Wang Y, Kumari P, et al. A piRNA-like small RNA interacts with and modulates p-ERM proteins in human somatic cells. Nat Commun 6, 7316. doi: 10.1038/ncomms8316 (2015)) and analyzed the relationship between the expression levels and the sensitivities to chemotherapeutic agents commonly used clinically for patients with NSCLC. We established doses of 50% inhibitory concentration (IC50) for CDDP, gemcitabine, and docetaxel in 4 SCC and 4 ADC cell lines based on 3-(4,5-dimethylthiazol-2-yl)-2,5-diphenyltetrazolium bromide (MTT) assay (Table 4). We then measured expression levels of the 11 selected piRNA-Ls using real-time RT-PCR before and 24 h after treatment with both IC50 (H) and IC25 (L) doses for each of the agents. […] Impact of gemcitabine and docetaxel in piR-L-138 expression was also determined in these NSCLC cell lines (FIG. 19). As CDDP is the backbone agent to treat patients with NSCLC, we selected CDDP as the representative agent to further determine the role of piR-L-138 in SCC cells' response to chemotherapy.

SKMES-1 = experiment: MTT assay, IC50 of CDDP in NSCLC cell lines; format: cell-based, Human; conditions: SKMES-1, MTT assay
Protocol: (§2) Cell viability and cell growth curve assay were determined by MTT assay and trypan blue exclusion assay, respectively as described previously (Kirino, Y. & Mourelatos, Z. Mouse Piwi-interacting RNAs are 2′-O-methylated at their 3′ termini Nat Struct Mol Biol. 14, 347-348 (2007)). BrieflySpecifically, MTT (5 mg/ml) was added into cells and incubated at culture condition for 3 hours, removed the medium carefully and dissolved formazan in DMSO, assay was used to assess the surviving cells and OD values were measured using Microplate Reader Manager (Bio Rad) at wavelengths of 570/690 nm. For trypan blue exclusion assay, cells were washed in PBS for three times, and dyed in 0.4% tyrpan blue solution. Unstained viable cells were counted in hemocytometer chamber under microscope. Each experiment was performed three times independently.
as §1

H1792 = experiment: MTT assay, IC50 of CDDP in NSCLC cell lines; format: cell-based, Human
Protocol: as §2, §1

H596 = experiment: MTT assay, IC50 of CDDP in NSCLC cell lines; format: cell-based, Human
Protocol: as §2, §1

H1944 = experiment: MTT assay, IC50 of CDDP in NSCLC cell lines; format: cell-based, Human
Protocol: as §2, §1

H1437 = experiment: MTT assay, IC50 of CDDP in NSCLC cell lines; format: cell-based, Human
Protocol: as §2, §1

H522 = experiment: MTT assay, IC50 of CDDP in NSCLC cell lines; format: cell-based, Human
Protocol: as §2, §1

H157 = experiment: MTT assay, IC50 of CDDP in NSCLC cell lines; format: cell-based, Human
Protocol: as §2, §1

H226 = experiment: MTT assay, IC50 of CDDP in NSCLC cell lines; format: cell-based, Human
Protocol: as §2, §1

piR-L-138 [2] = experiment: piR-L-138 expression by real-time RT-PCR after chemotherapeutic agent, SCC cell lines; format: cell-based, human; conditions: all SCC cell lines, 24 h after treatment
Excerpt: as §1

[NH2][Pt]([NH2])([Cl])[Cl] [CDDP, cisplatin]
piR-L-138 expression (piR-L-138 [1]): no or much smaller increase of piR-L-138 expression | pIC50 (SKMES-1): 5.00 | pIC50 (H1792): 4.30 | pIC50 (H596): 4.52 | pIC50 (H1944): 4.00 | pIC50 (H1437): 4.30 | pIC50 (H522): 4.35 | pIC50 (H157): 4.10 | pIC50 (H226): 4.40 | piR-L-138 levels (piR-L-138 [2]): consistent and substantial increase of piR-L-138 levels
